What all share (type): biochemical
The target in experiment [1] is T1, Cdc34-FLAG (ubiquitin conjugating enzyme Cdc34, SwissProt P49427) (Homo sapiens, UniProt P49427).
T1 construct: GST with Factor Xa cleavage site (N, cleaved yes); made in house; host or cells: baculovirus, High Five insect cells
T1 sequence (P49427 1-236): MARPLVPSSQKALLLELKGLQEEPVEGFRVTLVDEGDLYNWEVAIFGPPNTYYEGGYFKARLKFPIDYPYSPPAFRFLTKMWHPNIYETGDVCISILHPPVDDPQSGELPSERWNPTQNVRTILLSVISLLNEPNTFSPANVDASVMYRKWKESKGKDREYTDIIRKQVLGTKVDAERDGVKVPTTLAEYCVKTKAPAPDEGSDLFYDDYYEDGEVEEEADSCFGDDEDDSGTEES
Kind of experiment: Cdc34 thioester assay (time resolved fluorescence). As for the experimental part:
(§1) Cdc34 thioester assay: Here, we describe an assay, based on time resolved fluorescence, to monitor the formation of the thioester intermediate between ubiquitin and the ubiquitin-conjugating enzyme Cdc34. The assay is aimed at screening for inhibitors of Cdc34 thioester formation and requires Eu-labelled ubiquitin (Eu—Ub), GST-E1 and Cdc34-FLAG. • Mix: In non-absorbing plates • 10 μl Test compound 5×conc. in 5% DMSO • 30 μl Cdc34-FLAG (20.8 nM) in 1×TEB (no ATP) • Incubate 10 min at RT • Add: 10 μl Eu—Ub (31.2 nM), GST-E1 (125 nM) in 1×TEB+ATP (Pre-incubated 10 min at RT). • Incubate 30 min at RT • Final Concentrations: Test compound 50/12.5/3.13/0.78/0.2/0.05 μM • Cdc34-FLAG 12.5 nM • Eu—Ub 6.25 nM • GST-E1 25 nM • Transfer: 45 μl To streptavidin coated plate containing 50 μl / well Superblock−TBS+1 mM NEM+100 nM biotinylated anti-FLAG antibody • Incubate 2 hours at RT • Wash 6×200 μl/well with 1× Wallac Wash Solution • Add 200 μl/well Wallac Enhancer Solution • Mix 5 min • Read • Positive Control: no test compound, 10 μl 5% DMSO • Negative Control: no Cdc34-FLAG, 30 μl 1×TEB (no ATP)
(§2) The IC50 is defined as 50% inhibition of E2-ubiquitin thioester formation, estimated as the difference in fluorescence obtained in the presence or absence of E2 (Cdc34, UbcH5 or UbcH10).

Experiment [2] addresses T2, UbcH5-Strep (SwissProt P51668) (Homo sapiens, UniProt P51668).
T2 construct: GST with Factor Xa cleavage site (N, cleaved yes); made in house; host or cells: baculovirus, High Five insect cells
Kind of experiment: UbcH5 thioester assay. The note with it: thioester formation; n=2. The text has this:
(§3) The assays measuring the formation of the thioester intermediate between ubiquitin and the ubiquitin conjugating enzymes Cdc34 (SwissProt P49427) UbcH5 (SwissProt P51668) and UbcH10 (SwissProt O00762) are described below.
(§4) UbcH5 and UbcH10 thioester assays: Here, we describe an assay, based on time resolved fluorescence, to monitor the formation of the thioester intermediate between ubiquitin and the ubiquitin-conjugating enzymes UbcH5, respectively UbcH10. […]

The target in a further experiment is T3, Cdc34-FLAG (Homo sapiens, UniProt P49427).
T3 construct: GST with Factor Xa cleavage site (N, cleaved yes); made in house; host or cells: baculovirus, High Five insect cells
T3 sequence (P49427 1-236): T1 sequence (P49427 1-236)
Description: Cdc34 thioester assay in the presence of the chelating agents phenantroline or TSQ (zinc depletion / re-addition). To be noted: for IC50: read-out: Compound I IC50. The procedure:
as §1
Cdc34 thioester assay in the presence of the chelating agents phenantroline or TSQ In order to deplete Cdc34 from zinc prior to measuring the inhibitory activity of the test compounds, the Cdc34 thioester assay described above was modified as follows. • Mix: In non-absorbing plates on ice • 10 μl Cdc34-FLAG (62.5 nM) in 1×TEB (no ATP) • 10 μl 5× Phenanthroline/5×TSQ/buffer • 10 μl 5×ZnCl2/buffer • Incubate 10 min on ice • Add: 10 μl Test compound 5×conc. in 5% DMSO • 10 μl Eu—Ub (31.2 nM), GST-E1 (125 nM) in 1×TEB+ATP (Pre-incubated 10 min at RT). • Incubate 30 min at RT • Phenanthroline (Sigma # P-9375) • TSQ (Molecular Probes # M-688)
as §2

For experiment [3], the target named is T4, UbcH10-Strep (SwissProt O00762) (Homo sapiens, UniProt O00762).
T4 construct: GST with Factor Xa cleavage site (N, cleaved yes); made in house; host or cells: baculovirus, High Five insect cells
T4 sequence (O00762 1-179): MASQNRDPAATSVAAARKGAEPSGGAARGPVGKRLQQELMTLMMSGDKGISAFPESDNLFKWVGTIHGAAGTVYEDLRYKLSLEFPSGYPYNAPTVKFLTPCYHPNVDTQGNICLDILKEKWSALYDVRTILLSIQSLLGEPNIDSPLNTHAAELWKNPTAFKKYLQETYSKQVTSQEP
Description: UbcH10 thioester assay. To be noted: thioester formation; n=2.
From the text: as §3, §4

As usually defined, the IC50 is the concentration needed to halve the response being measured.

Read-outs that look alike come from different tables or passages of the source. Where only a bound is given, the exact number is not on record here.

T2 sequence (P51668 whole entry): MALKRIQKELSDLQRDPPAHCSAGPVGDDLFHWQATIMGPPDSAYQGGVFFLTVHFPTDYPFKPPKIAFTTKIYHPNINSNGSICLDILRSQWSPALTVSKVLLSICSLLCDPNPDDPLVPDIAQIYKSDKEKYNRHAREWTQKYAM

In the case of `Cc1cc(C)n(C(=O)c2cn3c(C)csc3n2)n1` [Compound I, (3,5-dimethyl-pyrazol-1-yl)-(3-methyl-imidazo[2,1-b]thiazol-6-yl)-methanone], the IC50 in experiment [1] (thioester formation, mean of n=5, read-out: Cdc34-FLAG IC50) was 390 nM; in experiment [2], over 50 µM; at Cdc34-FLAG (1,10-Phenanthroline 0 μM, ZnCl2 0 nM), 740 nM; on Cdc34-FLAG (1,10-Phenanthroline 0 μM, ZnCl2 100 nM), 550 nM; on Cdc34-FLAG (1,10-Phenanthroline 0 μM, ZnCl2 200 nM), 360 nM; at Cdc34-FLAG (1,10-Phenanthroline 2 μM, ZnCl2 0 nM), 1400 nM. The IC50 at Cdc34-FLAG (1,10-Phenanthroline 2 μM, ZnCl2 100 nM) came out at 640 nM; at Cdc34-FLAG (1,10-Phenanthroline 2 μM, ZnCl2 200 nM), 710 nM; on Cdc34-FLAG (1,10-Phenanthroline 10 μM, ZnCl2 0 nM), 8800 nM; on Cdc34-FLAG (1,10-Phenanthroline 10 μM, ZnCl2 100 nM), 4600 nM; at Cdc34-FLAG (1,10-Phenanthroline 10 μM, ZnCl2 200 nM), 1380 nM; on Cdc34-FLAG (TSQ 0 μM, ZnCl2 0 nM) it was 640 nM. Moreover, the IC50 is 600 nM at Cdc34-FLAG (TSQ 0 μM, ZnCl2 100 nM); 700 nM on Cdc34-FLAG (TSQ 0 μM, ZnCl2 200 nM); 4200 nM at Cdc34-FLAG (TSQ 2 μM, ZnCl2 0 nM); 950 nM on Cdc34-FLAG (TSQ 2 μM, ZnCl2 100 nM); 1300 nM at Cdc34-FLAG (TSQ 2 μM, ZnCl2 200 nM); 10600 nM on Cdc34-FLAG (TSQ 10 μM, ZnCl2 0 nM). The half-maximal inhibitory concentration (IC50) on Cdc34-FLAG (TSQ 10 μM, ZnCl2 100 nM) was 3300 nM; on Cdc34-FLAG (TSQ 10 μM, ZnCl2 200 nM) it was 600 nM; in experiment [3], over 50 µM. In addition, the “inhibitory activity on Cdc34 thioester formation” value on Cdc34-FLAG (Cdc34 pretreated with 50 μM phenanthroline (FIG. 3)) is reported as “completely abolished”. For the same compound, at Cdc34-FLAG (compound added to Cdc34 before phenantroline (data not shown)), the “effect of phenantroline on inhibitory activity of the compounds” value is on record as “failed to abolish the inhibitory activity”.

On to `Cc1cc(C)n(C(=O)c2cn3ccsc3n2)n1` [Compound II, (3,5-Dimethyl-pyrazol-1-yl)-imidazo[2,1-b]thiazol-6-yl-methanone], for which the half-maximal inhibitory concentration (IC50) in experiment [1] (read-out: IC50 values as determined in the Cdc34 thioester assays) was at most 1000 nM.

For the compound `CCCc1csc2nc(C(=O)n3nc(C)cc3C)cn12` [Compound V, (3,5-dimethyl-pyrazol-1-yl)-(3-propyl-imidazo[2,1-b]thiazol-6-yl)-methanone], the IC50 in experiment [2] and in experiment [3] was over 50 µM in each case.

Turning to `c1cnc2c(c1)ccc1cccnc12` [phenathroline, 1,10-Phenanthroline, reference compound], the “effect per se on the ability of Cdc34 to undergo thioester formation with ubiquitin” value on Cdc34-FLAG (FIG. 3) is recorded as “does not affect per se”.

The values are drawn from patent US20060211747A1, “Methods of screening for compounds which inhibit the activity of Cdc34 in a zinc-mediated manner and compounds obtained by this method” (priority 2004, published 2006).
